# Results reported in publication PMC6013775, “Inhibition of the key enzyme of sialic acid biosynthesis by C6-Se modified N-acetylmannosamine analogs” (Chemical Science, 2016).
# “And” between values parts separate entries of the source, which are not always exact repeats. Equal values may be shown once.
# Target: T1, UDP-GlcNAc-2-epimerase (GNE) activity of GNE/MNK (Mus musculus, UniProt Q91WG8)
# T1 construct: Analysis of GNE/MNK in mouse liver cytosol; from tissue; host or cells: mouse liver cytosol (supernatant of liver homogenate)
# T1 sequence (Q91WG8 1-722): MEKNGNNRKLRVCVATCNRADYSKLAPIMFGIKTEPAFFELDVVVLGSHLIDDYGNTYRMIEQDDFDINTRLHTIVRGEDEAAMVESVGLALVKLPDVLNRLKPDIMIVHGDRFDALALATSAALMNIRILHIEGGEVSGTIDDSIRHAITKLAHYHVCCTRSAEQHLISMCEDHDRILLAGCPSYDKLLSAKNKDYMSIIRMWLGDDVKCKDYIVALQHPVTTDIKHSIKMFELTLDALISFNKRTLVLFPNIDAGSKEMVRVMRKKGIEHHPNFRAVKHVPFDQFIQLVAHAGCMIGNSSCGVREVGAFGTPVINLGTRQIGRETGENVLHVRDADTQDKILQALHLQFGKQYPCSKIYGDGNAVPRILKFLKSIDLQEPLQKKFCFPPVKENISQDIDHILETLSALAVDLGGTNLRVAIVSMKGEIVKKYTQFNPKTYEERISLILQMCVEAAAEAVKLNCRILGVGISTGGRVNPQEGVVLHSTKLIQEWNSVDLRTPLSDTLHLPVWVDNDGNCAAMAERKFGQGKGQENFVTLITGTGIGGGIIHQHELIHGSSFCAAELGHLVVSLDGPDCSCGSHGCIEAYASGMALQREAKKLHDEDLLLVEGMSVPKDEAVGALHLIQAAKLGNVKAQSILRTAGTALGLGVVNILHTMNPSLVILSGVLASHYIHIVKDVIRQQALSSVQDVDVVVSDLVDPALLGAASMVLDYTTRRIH
# Test: Colorimetric GNE activity assay in mouse liver cytosol
# Assay type: biochemical
# Conditions: 1 mM UDP-GlcNAc, 45 min at 37 °C, read-out: IC50 for inhibiting GNE activity
# From the text: With the potent diselenide compound 14b in hand, we further studied the binding properties of this potent MNK inhibitor, which is to our knowledge the strongest MNK inhibitor reported to date. Diselenide 14b inhibited MNK activity in a dose dependent manner (Fig. 2A). […] Additionally, we tested if diselenide 14b influenced the GNE activity of the bifunctional GNE/MNK. […] To evaluate the specificity of the inhibitor towards other sugar kinases, we performed further inhibition studies using human GlcNAc kinase (GNK) and hexokinase (HK) from yeast (details in ESI ^†).
# Evaluation of the influence of 14b on UDP-GlcNAc-2-epimerase activity
# To study, if diselenide 14b interferes with the activity of the GNE domain of the bifunctional enzyme, we used enzymes from mouse liver homogenates. […] The sample was incubated at 37 °C for 20 min and the absorbance was […]
smiles,measurement,value
CC(=O)N[C@@H]1C(O)O[C@H](C[Se][Se]C[C@H]2OC(O)[C@@H](NC(C)=O)[C@@H](O)[C@@H]2O)[C@@H](O)[C@@H]1O (stereo partly shown) [Compound 14b],IC50,~200 µM and 182 µM
